Key:
[1] = Dissolution (decrosslinking) kinetics of labile crosslinkers under the dissolution treatment (applied stimulus); format: physicochemical; details: under the dissolution treatment listed per crosslinker (periodic acid, reducing agent, base or acid)
Text: Certain properties of labile crosslinkers are described in the table below.

[2] = Half-life of DK as a function of pH; format: physicochemical; details: buffer
Description: The half-life of DK was 0.03 days at pH 5 and 6 days at pH 7.4 (at 35° C.). To qualitatively confirm decrosslinking functionality, four solutions of tris glycine were titrated to pH values of 8.3, 7.1, 2.6 and 0.07, with the addition of hydrochloric acid. A piece of DK crosslinked PAG was placed into each of the separate solutions to assess dissolution at room temperature. Gels were periodically removed and photographs were taken to qualitatively assess how much gel remained. […] The gels soaking in 8.3 pH and 7.1 pH were not visually affected even after overnight incubation. […] Experiments were performed to study composite crosslinked PAG.

SMILES | Dissolution Kinetics [1] | half-life ([2]; pH 5, 35° C.) | half-life ([2]; pH 7.4, 35° C.)
C=CC(=O)NCCSSCCNC(=O)C=C [BAC, N,N′-bis(acryloyl)cystamine] | Minutes |  | 
C=CCNC(=O)C(O)C(O)C(=O)NCC=C (centres unmarked) [DATD, N—N′-diallyltartardiamide] | Hours |  | 
C=CC(=O)NC(O)C(O)NC(=O)C=C (centres unmarked) [DHEBA, N,N′-(1,2-dihydroxyethylene)bisacrylamide] | Hours |  | 
C=CC(=O)NCCOC(C)(C)OCCNC(=O)C=C [DK, N-[2-[2-[2-(prop-2-enoylamino)ethoxy]propan-2-yloxy]ethyl]prop-2-enamide] | Minutes | 0.72 h | 144 h
C=CC(=O)NCCOCCOC(C)(C)OCCOCCNC(=O)C=C [DOK, N,N′-(7,7-dimethyl-3,6,8,11-tetraoxatridecane-1,13-diyl)diacrylamide] | Minutes |  | 
C=CC(=O)OCCOC(=O)C=C [EDA, ethylene glycol diacrylate] | Minutes |  | 

— patent US10852272B2, “Devices and methods using pore size modulation for detecting analytes in a fluid sample” (The Regents of the University of California, priority 2014, dated 2020)
